This is an account of results in US20090098536A1, “Method for subgroup analysis in subjects having or being suspected of having inflammatory disease, use of anti-p38MAPK antibodies, kits and their use” (c-a-i-r- biosciences GmbH, priority 2007, published 2009).

In experiment [1] the test system is patients with moderate to severe rheumatoid arthritis. The experiment can be described thus: VeRA trial of the p38MAPK inhibitor VX-702 in rheumatoid arthritis. It counts as in vivo, human. The settings on record: according to a Monte Carlo simulation of the distribution of the effects. On the procedure: It has been claimed that p38MAPK inhibitors were of benefit in treating a large variety of disorders. […] In the VeRA trial, which was conducted to evaluate treatment effects in terms of characteristic manifestations of the disease such as tender joints, swollen joints, morning stiffness and disease activity in a cohort of 315 patients with moderate to severe rheumatoid arthritis, approximately 40% of patients were responsive to treatment with the p38MAPK inhibitor VX-702, compared to a placebo effect of about 30%, arguing for a biochemical net response rate of about 28% according to a Monte Carlo simulation of the distribution of the effects. So far, no explanation for this evident dichotomy between responders and non-responders has been proposed yet.

Experiment [2] shares this test system. As to conditions: cohort of 315 patients with moderate to severe rheumatoid arthritis; placebo effect about 30%; cited from earlier work.
Experiment [3] deals with p38MAPKα (Homo sapiens, UniProt Q16539). As to conditions: disclosed in WO 2004/110990; cited from earlier work.
Sequence of p38MAPKα (Q16539 1-360 isoform Q16539-2): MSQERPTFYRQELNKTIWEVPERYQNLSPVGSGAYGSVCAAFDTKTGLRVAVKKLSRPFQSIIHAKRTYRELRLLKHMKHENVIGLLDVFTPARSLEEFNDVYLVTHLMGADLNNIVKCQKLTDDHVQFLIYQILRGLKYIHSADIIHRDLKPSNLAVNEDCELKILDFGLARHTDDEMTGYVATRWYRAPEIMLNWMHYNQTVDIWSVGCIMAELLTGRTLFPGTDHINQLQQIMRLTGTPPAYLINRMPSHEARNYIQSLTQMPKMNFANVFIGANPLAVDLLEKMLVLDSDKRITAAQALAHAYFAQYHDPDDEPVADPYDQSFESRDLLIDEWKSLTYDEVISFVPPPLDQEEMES

On to `NC(=O)c1ccc(N(C(N)=O)c2c(F)cccc2F)nc1-c1ccc(F)cc1F` [VX-702], for which the “biochemical net response rate” value in experiment [1] was “about 28%”. Further, the “patients responsive to treatment” value in experiment [2] is reported as “approximately 40%”. `Fc1ccc(-c2nc3occn3c2-c2ccnc(NC3CC3)n2)cc1` [4-(4-fluorophenyl)-5-(2-[cyclopropyl-amino]-pyrimidyl-4-yl)-imidazooxazole]: the IC50 (usually the concentration at which inhibition is half-maximal) in experiment [3] was 0.44 nM.
